From ChEMBL document CHEMBL2177007, “Indole-derived psammaplin A analogues as epigenetic modulators with multiple inhibitory activities” (J Med Chem, 2012) come the findings set out here.

Active and inactive are the calls of the source. The calls are words filed in the database; no cut-off is given here.

The subject of assay [1] is U-937. Kind of assay: Effect on DNMT1 level in human U937 cells at 0.5 to 5 uM after 24 hrs by Western blot analysis. The format is functional, cell-based.
Assay [2] addresses Histone deacetylase 4 (Homo sapiens) (UniProt P56524). Kind of assay: Inhibition of HDAC4 in human U937 cells at 5 uM […]. The format is cell-based. As to conditions: U-937.
Assay [3] addresses Histone deacetylase 1 (Homo sapiens) (UniProt Q13547). Kind of assay: Inhibition of HDAC1 in human U937 cells at 5 uM […]. The format is cell-based. As to conditions: U-937.
The target in assay [4] is T1, NAD-dependent protein deacetylase sirtuin-1 (Homo sapiens) (UniProt Q96EB6).
T1 sequence (whole entry): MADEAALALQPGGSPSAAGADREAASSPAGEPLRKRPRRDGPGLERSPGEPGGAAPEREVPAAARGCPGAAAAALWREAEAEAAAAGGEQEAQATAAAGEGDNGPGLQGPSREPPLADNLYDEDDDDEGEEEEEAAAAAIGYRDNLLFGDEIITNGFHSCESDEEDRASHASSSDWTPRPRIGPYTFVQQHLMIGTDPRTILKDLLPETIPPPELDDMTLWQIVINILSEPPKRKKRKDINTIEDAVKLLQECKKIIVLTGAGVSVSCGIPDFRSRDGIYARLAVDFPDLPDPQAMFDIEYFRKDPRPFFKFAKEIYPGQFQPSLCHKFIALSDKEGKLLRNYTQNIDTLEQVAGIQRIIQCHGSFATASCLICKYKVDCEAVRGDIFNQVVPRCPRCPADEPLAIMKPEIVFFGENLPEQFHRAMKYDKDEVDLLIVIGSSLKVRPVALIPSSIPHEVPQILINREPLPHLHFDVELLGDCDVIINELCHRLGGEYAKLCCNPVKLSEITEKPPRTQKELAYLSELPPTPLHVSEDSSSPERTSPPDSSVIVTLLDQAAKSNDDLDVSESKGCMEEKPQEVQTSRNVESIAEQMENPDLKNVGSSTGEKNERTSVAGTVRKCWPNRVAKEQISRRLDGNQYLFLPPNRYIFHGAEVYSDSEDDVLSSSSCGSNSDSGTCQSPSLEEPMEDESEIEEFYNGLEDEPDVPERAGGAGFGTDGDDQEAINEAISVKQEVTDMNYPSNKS
Kind of assay: Inhibition of SIRT1 in human MCF7 cells assessed as p53 acetylation on lysine 382 after 24 hrs by Western blot analysis. The class given is cell-based.

Assay [5] deals with Histone deacetylase (Homo sapiens) (UniProt Q13547+O15379+Q9UBN7+Q92769+Q9UQL6+Q8WUI4+Q9BY41+Q96DB2+P56524+Q9UKV0+Q969S8). Kind of assay: Inhibition of HDAC in human U937 cells assessed as induction of histone H3 acetylation at 5 uM after 30 hrs by cytofluorimetric analysis. The class given is cell-based. The note with it: U-937.
The subject of assay [6] is U-937. Kind of assay: Induction of cell differentiation in human U937 cells assessed as CD11c expression at 5 uM after 30 hrs by cytofluorimetric analysis. The class given is functional, cell-based.
In assay [7] the test system is U-937. Kind of assay: Induction of apoptosis in human U937 cells at 5 uM after 30 hrs. The format is functional, cell-based.
The target in assay [8] is DNA (cytosine-5)-methyltransferase 1 (Homo sapiens) (UniProt P26358). Kind of assay: Inhibition of DNMT1 human U937 cells assessed as reactivation of p16 expression at 5 uM after 24 hrs by Western blot analysis. The class given is cell-based. As to conditions: U-937.
Chain of DNA (cytosine-5)-methyltransferase 1 (Homo sapiens) (P26358 whole entry): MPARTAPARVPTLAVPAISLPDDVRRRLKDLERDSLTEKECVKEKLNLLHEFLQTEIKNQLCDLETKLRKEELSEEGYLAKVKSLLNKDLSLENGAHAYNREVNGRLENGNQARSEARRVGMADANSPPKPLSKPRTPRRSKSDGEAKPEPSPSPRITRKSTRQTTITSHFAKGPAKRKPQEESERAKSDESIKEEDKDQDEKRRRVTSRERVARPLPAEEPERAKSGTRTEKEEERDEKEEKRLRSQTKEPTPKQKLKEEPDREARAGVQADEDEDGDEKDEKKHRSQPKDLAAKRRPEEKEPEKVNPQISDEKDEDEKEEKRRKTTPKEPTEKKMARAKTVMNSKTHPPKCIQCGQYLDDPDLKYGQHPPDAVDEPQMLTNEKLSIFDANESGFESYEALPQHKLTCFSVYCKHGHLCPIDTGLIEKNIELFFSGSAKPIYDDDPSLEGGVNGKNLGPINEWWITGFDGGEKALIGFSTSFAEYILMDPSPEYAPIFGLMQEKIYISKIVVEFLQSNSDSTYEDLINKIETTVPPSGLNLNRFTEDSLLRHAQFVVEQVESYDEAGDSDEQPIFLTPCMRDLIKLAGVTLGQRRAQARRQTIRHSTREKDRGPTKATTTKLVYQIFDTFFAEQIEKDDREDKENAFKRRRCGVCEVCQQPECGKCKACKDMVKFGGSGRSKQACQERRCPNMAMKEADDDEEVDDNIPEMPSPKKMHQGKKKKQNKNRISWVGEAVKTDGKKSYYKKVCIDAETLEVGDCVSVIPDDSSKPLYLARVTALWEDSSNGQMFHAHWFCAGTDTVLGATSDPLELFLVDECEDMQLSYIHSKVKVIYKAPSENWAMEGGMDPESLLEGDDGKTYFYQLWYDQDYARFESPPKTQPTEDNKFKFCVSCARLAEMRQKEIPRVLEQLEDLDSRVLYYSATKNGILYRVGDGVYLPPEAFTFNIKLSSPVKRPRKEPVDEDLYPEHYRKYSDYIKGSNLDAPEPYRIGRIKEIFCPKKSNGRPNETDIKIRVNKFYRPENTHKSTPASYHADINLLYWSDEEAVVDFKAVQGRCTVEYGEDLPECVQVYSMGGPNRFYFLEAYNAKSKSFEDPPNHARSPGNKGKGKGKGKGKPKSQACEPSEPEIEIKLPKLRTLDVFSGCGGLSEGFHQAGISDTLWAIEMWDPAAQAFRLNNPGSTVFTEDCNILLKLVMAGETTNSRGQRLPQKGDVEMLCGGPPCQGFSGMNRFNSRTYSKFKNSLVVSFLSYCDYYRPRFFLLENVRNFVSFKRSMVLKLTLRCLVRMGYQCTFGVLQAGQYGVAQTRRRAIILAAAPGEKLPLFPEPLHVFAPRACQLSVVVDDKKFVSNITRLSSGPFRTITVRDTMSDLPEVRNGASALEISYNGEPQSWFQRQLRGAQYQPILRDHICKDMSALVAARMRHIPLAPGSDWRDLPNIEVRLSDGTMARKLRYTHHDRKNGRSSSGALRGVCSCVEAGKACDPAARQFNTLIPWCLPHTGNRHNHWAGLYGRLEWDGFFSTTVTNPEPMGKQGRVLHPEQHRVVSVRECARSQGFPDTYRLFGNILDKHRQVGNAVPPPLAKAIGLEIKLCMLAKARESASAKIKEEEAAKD
Assay [9] has as its target Protein kinase C alpha type (Homo sapiens) (UniProt P17252). Kind of assay: Inhibition of PKCalpha in human U937 cells assessed as p21WAF1/CIP1 expression at 5 uM after 30 hrs by cytofluorimetric analysis. The note with it: U-937. The format is cell-based.
The target of assay [10] is DNA (cytosine-5)-methyltransferase 1 (Homo sapiens) (UniProt P26358). Kind of assay: Inhibition of recombinant DNMT1 using S-adenosyl-L-[methyl-3H]methionine as substrate at 5 uM after 2 hrs by radioactive assay.
The target of assay [11] is T2, Protein deacetylase HDAC6 (Homo sapiens) (UniProt Q9UBN7).
T2 sequence (whole entry): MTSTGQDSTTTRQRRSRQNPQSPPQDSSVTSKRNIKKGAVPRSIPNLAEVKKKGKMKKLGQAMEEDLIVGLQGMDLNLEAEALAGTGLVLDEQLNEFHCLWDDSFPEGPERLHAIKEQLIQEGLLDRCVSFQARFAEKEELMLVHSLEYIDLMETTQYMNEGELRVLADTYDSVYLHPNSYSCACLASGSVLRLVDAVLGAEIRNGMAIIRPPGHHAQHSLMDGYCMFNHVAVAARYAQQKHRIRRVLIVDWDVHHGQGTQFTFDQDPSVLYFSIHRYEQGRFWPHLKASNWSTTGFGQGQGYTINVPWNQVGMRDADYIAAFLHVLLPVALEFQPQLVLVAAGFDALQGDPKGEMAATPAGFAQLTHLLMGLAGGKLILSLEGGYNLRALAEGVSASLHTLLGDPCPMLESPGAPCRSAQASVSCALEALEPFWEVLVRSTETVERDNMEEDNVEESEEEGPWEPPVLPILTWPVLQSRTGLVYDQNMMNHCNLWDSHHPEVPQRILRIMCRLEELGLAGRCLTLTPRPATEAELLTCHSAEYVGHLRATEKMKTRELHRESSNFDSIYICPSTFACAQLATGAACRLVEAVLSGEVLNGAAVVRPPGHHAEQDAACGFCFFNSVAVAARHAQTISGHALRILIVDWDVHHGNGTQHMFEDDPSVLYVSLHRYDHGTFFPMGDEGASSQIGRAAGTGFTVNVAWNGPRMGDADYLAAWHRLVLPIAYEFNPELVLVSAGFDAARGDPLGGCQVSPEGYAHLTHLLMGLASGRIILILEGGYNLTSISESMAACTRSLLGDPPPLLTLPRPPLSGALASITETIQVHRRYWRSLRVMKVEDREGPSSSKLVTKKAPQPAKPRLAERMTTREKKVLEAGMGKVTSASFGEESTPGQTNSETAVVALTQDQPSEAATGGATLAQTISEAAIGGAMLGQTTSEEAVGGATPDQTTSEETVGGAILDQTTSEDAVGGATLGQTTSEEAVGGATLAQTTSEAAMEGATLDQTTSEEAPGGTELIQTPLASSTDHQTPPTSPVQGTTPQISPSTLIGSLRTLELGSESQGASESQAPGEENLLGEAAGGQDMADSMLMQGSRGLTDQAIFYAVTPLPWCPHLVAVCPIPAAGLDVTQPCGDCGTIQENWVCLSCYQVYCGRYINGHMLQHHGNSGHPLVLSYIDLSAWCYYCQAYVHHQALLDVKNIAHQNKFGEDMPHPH
Kind of assay: Inhibition of HDAC6 in human U937 cells assessed as induction of alpha-tubulin acetylation at 5 uM after 30 hrs by cytofluorimetric analysis. The class given is cell-based. The note with it: U-937.

Assay [12] deals with U-937. Kind of assay: Cell cycle arrest in human U937 cells at 5 uM after 24 hrs by cytofluorimetric analysis. The format is functional, cell-based.
A short description of assay [13]: Cell cycle arrest in apoptosis in AML patient blasts at 5 uM after 26 hrs. The note with it: Homo sapiens. The class given is functional.
The test system of assay [14] is AML. Kind of assay: Induction of apoptosis in AML patient blasts at 5 uM after 26 hrs. The class given is functional. As to conditions: Homo sapiens.
Assay [15] addresses T1, NAD-dependent protein deacetylase sirtuin-1 (Homo sapiens). Kind of assay: Inhibition of SIRT1 in human U937 cells assessed as H3 acetylation on lysine K9 at 5 uM after 24 hrs by Western blot analysis. The class given is cell-based. The note with it: U-937.
For assay [16] the target is unchanged. Kind of assay: Inhibition of human recombinant SIRT1 using KI-177 as substrate at 5 uM after 30 mins by fluorescence assay.
Assay [17] shares this target. Kind of assay: Inhibition of SIRT1 in human U937 cells assessed as H3 acetylation on lysine K56 at 5 uM after 24 hrs by Western blot analysis. The class given is cell-based. The note with it: U-937.
Assay [18] deals with U-937. Kind of assay: Cell cycle arrest in human U937 cells assessed as accumulation at G1 phase at 5 uM after 24 hrs by cytofluorimetric analysis. The class given is functional, cell-based.
Assay [19] concerns U-937. Kind of assay: Cell cycle arrest in human U937 cells assessed as accumulation at G2M phase at 5 uM after 24 hrs by cytofluorimetric analysis. The class given is functional, cell-based.
The target in assay [20] is T1, NAD-dependent protein deacetylase sirtuin-1 (Homo sapiens). Kind of assay: Inhibition of SIRT1 in human MCF7 cells assessed as p53 acetylation on lysine 382 at 5 uM after 24 hrs by Western blot analysis. The class given is cell-based.
In assay [21] the target is DNA (cytosine-5)-methyltransferase 1 (Homo sapiens) (UniProt P26358). Kind of assay: Inhibition of DNMT1 human u937 cells assessed as reactivation of p16 expression at 0.5 to 5 uM after 24 hrs by Western blot analysis.

Chain of Histone deacetylase 4 (Homo sapiens) (P56524 whole entry): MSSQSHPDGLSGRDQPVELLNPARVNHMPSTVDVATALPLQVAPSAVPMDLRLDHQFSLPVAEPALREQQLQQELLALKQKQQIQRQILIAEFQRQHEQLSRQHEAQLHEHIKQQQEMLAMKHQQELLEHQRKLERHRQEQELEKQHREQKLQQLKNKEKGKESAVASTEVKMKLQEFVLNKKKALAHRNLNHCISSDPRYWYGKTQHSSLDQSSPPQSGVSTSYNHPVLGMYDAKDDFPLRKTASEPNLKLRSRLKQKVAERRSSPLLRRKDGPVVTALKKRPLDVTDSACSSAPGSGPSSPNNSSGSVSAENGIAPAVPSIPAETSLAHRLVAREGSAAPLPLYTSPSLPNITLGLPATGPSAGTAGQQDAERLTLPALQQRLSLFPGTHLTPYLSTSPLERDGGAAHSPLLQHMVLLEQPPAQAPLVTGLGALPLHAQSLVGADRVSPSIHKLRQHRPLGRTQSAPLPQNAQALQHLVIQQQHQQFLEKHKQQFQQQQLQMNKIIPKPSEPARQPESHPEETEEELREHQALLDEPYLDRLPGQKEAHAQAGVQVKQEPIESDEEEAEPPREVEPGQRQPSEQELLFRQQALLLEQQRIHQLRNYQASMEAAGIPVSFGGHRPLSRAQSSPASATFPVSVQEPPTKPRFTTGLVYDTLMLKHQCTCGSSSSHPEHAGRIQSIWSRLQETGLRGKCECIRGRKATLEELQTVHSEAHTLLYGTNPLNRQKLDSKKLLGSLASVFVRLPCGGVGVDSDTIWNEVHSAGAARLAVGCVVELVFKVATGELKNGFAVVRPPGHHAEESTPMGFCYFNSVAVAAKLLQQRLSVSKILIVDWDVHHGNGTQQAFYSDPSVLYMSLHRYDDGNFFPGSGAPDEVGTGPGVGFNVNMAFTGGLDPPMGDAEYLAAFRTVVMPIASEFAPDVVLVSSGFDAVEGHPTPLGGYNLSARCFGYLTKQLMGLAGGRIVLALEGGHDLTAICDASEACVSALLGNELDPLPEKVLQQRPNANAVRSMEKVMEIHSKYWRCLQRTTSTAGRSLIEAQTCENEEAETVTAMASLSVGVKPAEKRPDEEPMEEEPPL
Chain of Histone deacetylase 1 (Homo sapiens) (Q13547 whole entry): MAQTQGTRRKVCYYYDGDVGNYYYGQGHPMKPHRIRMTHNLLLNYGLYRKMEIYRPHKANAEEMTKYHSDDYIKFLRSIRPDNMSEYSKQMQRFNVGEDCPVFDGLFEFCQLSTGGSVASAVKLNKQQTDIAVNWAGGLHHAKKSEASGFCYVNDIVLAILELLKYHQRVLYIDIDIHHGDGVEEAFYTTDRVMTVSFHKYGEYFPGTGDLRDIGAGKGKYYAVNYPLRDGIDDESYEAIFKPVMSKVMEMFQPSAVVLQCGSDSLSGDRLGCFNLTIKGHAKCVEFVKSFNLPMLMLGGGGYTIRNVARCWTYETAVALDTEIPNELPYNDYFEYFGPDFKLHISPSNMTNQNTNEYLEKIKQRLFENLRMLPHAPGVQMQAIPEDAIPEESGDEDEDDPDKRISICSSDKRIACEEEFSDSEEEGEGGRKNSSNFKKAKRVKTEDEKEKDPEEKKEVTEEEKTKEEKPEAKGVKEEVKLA

For the compound `O=C(NCCSSCCNC(=O)/C(Cc1c[nH]c2ccc(OCc3ccccc3)cc12)=N/O)/C(Cc1c[nH]c2ccc(OCc3ccccc3)cc12)=N/O`, the result in assay [1] was inactive. The inhibition entry in assay [2], in assay [3], in assay [5], in [8], in assay [9] and in assay [10] was “Active” throughout. The inhibition result in assay [11] was “Active”. Further, in assay [4], the inhibition entry was “Dose-dependent effect”. Also, the outcome in assay [6] and in assay [7] was Active.
As for `O=C(NCCSSCCNC(=O)/C(Cc1c[nH]c2cc(Br)ccc12)=N/O)/C(Cc1c[nH]c2cc(Br)ccc12)=N/O`, the inhibition was 40% in assay [2] and 60% in assay [3]. In addition, the result in [12], in assay [6], in assay [7], in [13] and in assay [14] was Active. Further, the inhibition result in assay [5], in assay [9] and in [11] was “Active” throughout.
For the compound `CSCCNC(=O)/C(Cc1c[nH]c2ccc(Br)cc12)=N/O`, the inhibition entry in [15], in assay [5], in assay [17], in assay [9], in assay [20] and in [21] was “Active” each time. Besides, the inhibition entry in assay [11] is “Active”. Also, the result in assay [1], in assay [7] and in assay [19] was inactive. The values for the inhibition in [2] and in assay [3] were 20% and 40%, respectively. Besides, the inhibition result in assay [16] and in assay [10] was “inactive” throughout. Besides, the result in assay [6], in assay [18] and in assay [14] was Active.
Consider `O=C(NCCSSCCNC(=O)/C(Cc1ccc(O)c(Br)c1)=N/O)/C(Cc1ccc(O)c(Br)c1)=N/O`, for which the result in [7], in [13] and in assay [14] was Active. Further, the inhibition entry in assay [11] is “Active”.
In the case of `Cn1cc(C/C(=N\O)C(=O)NCCSSCCNC(=O)/C(Cc2cn(C)c3ccc(Br)cc23)=N/O)c2cc(Br)ccc21`, the inhibition entry in [15], in assay [3], in assay [5], in [17], in assay [8] and in assay [9] was “Active” each time. Moreover, the inhibition entry in [21] and in assay [11] was “Active” throughout. Besides, the result in assay [1] was inactive. Besides, the inhibition entry in assay [16] and in [10] was “inactive” throughout. In addition, in assay [4], the inhibition result was “Dose-dependent effect”. In addition, the result in assay [6] and in assay [7] was Active.
For the compound `O=C(NCCSSCCNC(=O)/C(Cc1c[nH]c2c(Br)cccc12)=N/O)/C(Cc1c[nH]c2c(Br)cccc12)=N/O`, the inhibition worked out at 40% in assay [2] and 60% in [3]. Moreover, the result in [12], in [6], in assay [7], in [13] and in [14] was Active. Further, the inhibition result in [5], in [9] and in [11] was “Active” each time.
In the case of `O=C(NCCO)/C(Cc1c[nH]c2ccc(Br)cc12)=N/O`, the inhibition entry in assay [15], in assay [16] and in assay [17] was “inactive” each time. Besides, the outcome in assay [1] was inactive. In addition, the inhibition entry in assay [4] was “Dose-dependent effect”. Moreover, the inhibition result in [8] and in [11] was “Active” throughout.
Turning to `O=C(NCCSSCCNC(=O)/C(Cc1c[nH]c2ccc(Br)cc12)=N/O)/C(Cc1c[nH]c2ccc(Br)cc12)=N/O`, the result in assay [1] was inactive. Also, the figures for the inhibition in [2] and in assay [3] were 40% and 60%, respectively. The inhibition result in assay [16], in [5], in [8], in [9], in assay [10] and in assay [20] was “Active” throughout. For the same compound, the inhibition entry in assay [21] and in assay [11] was “Active” in each case. For the same compound, the outcome in [7], in [13] and in [14] was Active.
